# Data taken from article PMC10174317, “^18F-labeled FGFR1 peptide: a new PET probe for subtype FGFR1 receptor imaging” (Frontiers in Oncology, 2023).
# Where a SMILES comes first, the peptide text is derived from it. The star is where a group is joined. NOTA = O=C(O)CN1CCN(CC(=O)O)CCN(CC(=O)*)CC1; AEEA = NCCOCCOCC(=O)O
# Legend:
# [1] = Micro-PET/CT biodistribution in RT-112-blocked xenografts; assay type: in vivo, BALB/c nude mice; conditions: female, BALB/c nude, mouse, iv, total radioactivity, n=5; for tissue uptake at 0.5 h / tissue uptake at 1 h / tissue uptake at 2 h: RT-112-blocked xenografts (tracer mixed with 200-fold, 1.58 mg, unlabeled peptide), 11.1 MBq tail vein, micro-PET/CT ROI, mean ± SD; for tissue uptake at 0.5 h: 30 min post-injection; for tissue uptake at 1 h: 60 min post-injection
# Method: (§1) All animal experiments were carried out in accordance with the Laboratory Animal Ethical Review of Animal Guidelines of China. BALB/c nude mice (sex, female; age, 4 weeks, body weight range, 19-21 g; China) were used for this study. Four cell lines (2*10^7 cells/nude mouse) were subcutaneously injected into the right forelimb to induce solid tumors. All xenograft nude mice were housed in laminar flow cabinets in a specific pathogen-free (SPF) environment and were provided ad libitum access to food and water at the Laboratory Animal Center of the Fourth Hospital of Hebei Medical University (China). The indication for micro-PET/CT imaging was xenografts with a tumor volume of 50-130 mm^3. All animal experiments strictly adhered to the Principles of the Laboratory Animal Ethical Committee of the Fourth Hospital Hebei Medical University (No. 2020016).
# (§2) Xenograft mice (n=5) were fastly injected of 200 µl of [^18F]F-FGFR1 (11.1 MBq) through tail vein. For the in vivo blocking study, RT-112 (FGFR1-high expression) tumor-bearing mice (n = 5) were injected with a tracer that was mixed with 200-fold (1.58 mg) unlabeled peptide to saturate the receptors in the tumors. Mice were anesthetized via 3% isoflurane inhalation (RWD Life Science Inc. China) for induction and 2% isoflurane inhalation for maintenance. Micro-PET/CT imaging was performed on a micro-PET/SPECT/CT machine (NOVEL MEDICAL Equipment Ltd. China). Whole-body scans were performed 30, 60 and 120 min after tracer administration. The CT scanning parameters were 80 kV, 0.5 mA, 2000 ms/frames, and 360 frames; the images were reconstructed with a 512*512 matrix and a slice thickness of 0.18 mm. PET images were acquired with a 140*140 matrix and 10 min of total acquisition time. Reconstructed images were processed with the comprehensive image analysis software Pmod v4.201 (PMOD Technologies LLC. Switzerland). The biodistribution of the major organs (brain, heart, lung, liver, kidney, bone and muscle) and tumor were analyzed by manually outlining the regions of interest (ROIs) of the entire organs and tissue at each time point of the micro-PET/CT scan. The radioactivity accumulated in bone and muscle was measured in the limbs without xenograft tumors.
# [2] = Micro-PET/CT biodistribution in SNU-16 xenografts; assay type: in vivo, BALB/c nude mice; conditions: female, BALB/c nude, mouse, iv, total radioactivity, 11.1 MBq tail vein, micro-PET/CT ROI, mean ± SD; for tissue uptake at 0.5 h: 30 min post-injection; for tissue uptake at 1 h: 60 min post-injection; for tissue uptake at 2 h: 120 min post-injection
# Method: as §1, §2
# [3] = In vitro stability in fresh human serum (RP-HPLC); assay type: in vitro ADME; conditions: 37°C, 1, 2, 4 and 6 h
# Method: The in vitro and in vivo stability of [^18F]F-FGFR1 was evaluated by RP-HPLC analysis. […] The radiochemical purity of the final compounds was determined by RP-HPLC.
# [4] = Micro-PET/CT biodistribution in Calu-3 xenografts; assay type: in vivo, BALB/c nude mice; conditions: female, BALB/c nude, mouse, iv, total radioactivity, 11.1 MBq tail vein, micro-PET/CT ROI, mean ± SD; for tissue uptake at 0.5 h: 30 min post-injection; for tissue uptake at 1 h: 60 min post-injection; for tissue uptake at 2 h: 120 min post-injection
# Method: as §1, §2
# [5] = In vivo radiochemical stability, urine of xenograft nude mice (RP-HPLC); conditions: urine of xenograft nude mice 60 min after injection of 7.4 MBq; one peak at 5.7 min; fluorine-18 at 4 min
# Method: For the in vivo radiochemical stability experiment, urine samples were obtained from xenograft nude mice 60 min after injection of 150 µl (7.4 MBq, 2.53 GBq/μmol) [^18F]F-FGFR1 and analyzed by RP-HPLC.
# [6] = bone, read-out: Biodistribution, Bone
# [7] = brain, read-out: Biodistribution, Brain
# [8] = heart, read-out: Biodistribution, Heart
# [9] = kidney, read-out: Biodistribution, Kidney
# [10] = liver, read-out: Biodistribution, Liver
# [11] = lung, read-out: Biodistribution, Lung
# [12] = muscle, read-out: Biodistribution, Muscle
# [13] = tumor, read-out: Biodistribution, Tumor
# [14] = bone, n=5, read-out: Biodistribution, Bone
# [15] = brain, n=5, read-out: Biodistribution, Brain
# [16] = heart, n=5, read-out: Biodistribution, Heart
# [17] = kidney, n=5, read-out: Biodistribution, Kidney
# [18] = liver, n=5, read-out: Biodistribution, Liver
# [19] = lung, n=5, read-out: Biodistribution, Lung
# [20] = muscle, n=5, read-out: Biodistribution, Muscle
# [21] = tumor, n=5, read-out: Biodistribution, Tumor
smiles,measurement,setting,value
CC(C)C[C@H](NC(=O)[C@H](CO)NC(=O)[C@H](CCCCN)NC(=O)[C@H](Cc1c[nH]c2ccccc12)NC(=O)[C@H](CCC(=O)O)NC(=O)[C@H](C)NC(=O)[C@H](CCCCN)NC(=O)COCCOCCNC(=O)CN1CCN(CC(=O)O)CCN(CC(=O)O)CC1)C(=O)NCC(=O)N[C@@H](CCC(=O)O)C(=O)N[C@@H](CCC(=O)O)C(=O)N[C@@H](C)C(=O)N[C@@H](Cc1c[nH]c2ccccc12)C(=O)N[C@@H](Cc1c[nH]cn1)C(=O)N[C@@H](CO)C(=O)N[C@@H](CCCCN)C(=O)O [[^18F]F-FGFR1] ({NOTA-AEEA}-KAEWKSLGEEAWHSK-OH; N-terminus and C-terminus assumed),tissue uptake at 0.5 h,[1]; [6],0.31 ± 0.07 %ID/g
same,tissue uptake at 1 h,[1]; [6],0.37 ± 0.04 %ID/g
same,tissue uptake at 2 h,"[1]; bone, 120 min post-injection, read-out: Biodistribution, Bone",0.35 ± 0.07 %ID/g
same,tissue uptake at 0.5 h,[1]; [7],0.61 ± 0.03 %ID/g
same,tissue uptake at 1 h,[1]; [7],0.61 ± 0.06 %ID/g
same,tissue uptake at 2 h,"[1]; brain, 120 min post-injection, read-out: Biodistribution, Brain",0.71 ± 0.1 %ID/g
same,tissue uptake at 0.5 h,[1]; [8],0.74 ± 0.08 %ID/g
same,tissue uptake at 1 h,[1]; [8],0.7 ± 0.07 %ID/g
same,tissue uptake at 2 h,"[1]; heart, 120 min post-injection, read-out: Biodistribution, Heart",0.75 ± 0.14 %ID/g
same,tissue uptake at 0.5 h,[1]; [9],9.35 ± 0.82 %ID/g
same,tissue uptake at 1 h,[1]; [9],7.31 ± 0.87 %ID/g
same,tissue uptake at 2 h,"[1]; kidney, 120 min post-injection, read-out: Biodistribution, Kidney",3.37 ± 0.54 %ID/g
same,tissue uptake at 0.5 h,[1]; [10],0.67 ± 0.16 %ID/g
same,tissue uptake at 1 h,[1]; [10],0.51 ± 0.09 %ID/g
same,tissue uptake at 2 h,"[1]; liver, 120 min post-injection, read-out: Biodistribution, Liver",0.5 ± 0.09 %ID/g
same,tissue uptake at 0.5 h,[1]; [11],0.6 ± 0.05 %ID/g
same,tissue uptake at 1 h,[1]; [11],0.59 ± 0.04 %ID/g
same,tissue uptake at 2 h,"[1]; lung, 120 min post-injection, read-out: Biodistribution, Lung",0.51 ± 0.07 %ID/g
same,tissue uptake at 0.5 h,[1]; [12],0.26 ± 0.03 %ID/g
same,tissue uptake at 1 h,[1]; [12],0.29 ± 0.03 %ID/g
same,tissue uptake at 2 h,"[1]; muscle, 120 min post-injection, read-out: Biodistribution, Muscle",0.27 ± 0.02 %ID/g
same,tissue to tissue ratio at 2 h,"[1]; tumor and liver, RT-112-blocked xenografts (200-fold unlabeled peptide), 120 min post-injection, micro-PET/CT, read-out: Tumor to liver ratio (T/L)",0.85 ± 0.22
same,tissue uptake at 0.5 h,[1]; [13],0.4 ± 0.02 %ID/g
same,tissue uptake at 1 h,[1]; [13],0.39 ± 0.03 %ID/g
same,tissue uptake at 2 h,"[1]; tumor, 120 min post-injection, read-out: Biodistribution, Tumor",0.4 ± 0.02 %ID/g
same,tissue uptake at 0.5 h,[2]; [14],0.38 ± 0.1 %ID/g
same,tissue uptake at 1 h,[2]; [14],0.37 ± 0.05 %ID/g
same,tissue uptake at 2 h,[2]; [14],0.41 ± 0.02 %ID/g
same,tissue uptake at 0.5 h,[2]; [15],0.56 ± 0.06 %ID/g
same,tissue uptake at 1 h,[2]; [15],0.6 ± 0.07 %ID/g
same,tissue uptake at 2 h,[2]; [15],0.56 ± 0.1 %ID/g
same,tissue uptake at 0.5 h,[2]; [16],0.7 ± 0.09 %ID/g
same,tissue uptake at 1 h,[2]; [16],0.62 ± 0.09 %ID/g
same,tissue uptake at 2 h,[2]; [16],0.55 ± 0.06 %ID/g
same,tissue uptake at 0.5 h,[2]; [17],8.04 ± 0.97 %ID/g
same,tissue uptake at 1 h,[2]; [17],7.43 ± 0.83 %ID/g
same,tissue uptake at 2 h,[2]; [17],4.23 ± 0.7 %ID/g
same,tissue uptake at 0.5 h,[2]; [18],1.54 ± 0.11 %ID/g
same,tissue uptake at 1 h,[2]; [18],1.57 ± 0.12 %ID/g
same,tissue uptake at 2 h,[2]; [18],1.45 ± 0.1 %ID/g
same,tissue uptake at 0.5 h,[2]; [19],0.67 ± 0.08 %ID/g
same,tissue uptake at 1 h,[2]; [19],0.6 ± 0.03 %ID/g
same,tissue uptake at 2 h,[2]; [19],0.46 ± 0.09 %ID/g
same,tissue uptake at 0.5 h,[2]; [20],0.27 ± 0.06 %ID/g
same,tissue uptake at 1 h,[2]; [20],0.27 ± 0.03 %ID/g
same,tissue uptake at 2 h,[2]; [20],0.31 ± 0.02 %ID/g
same,tissue uptake at 0.5 h,[2]; [21],0.66 ± 0.05 %ID/g
same,tissue uptake at 1 h,[2]; [21],0.6 ± 0.06 %ID/g
same,tissue uptake at 2 h,[2]; [21],0.45 ± 0.04 %ID/g
same,Radiochemical purity after incubation (in vitro stability),[3],exceeded 90%
same,tissue uptake at 0.5 h,[4]; [14],0.42 ± 0.05 %ID/g
same,tissue uptake at 1 h,[4]; [14],0.36 ± 0.05 %ID/g
same,tissue uptake at 2 h,[4]; [14],0.37 ± 0.04 %ID/g
same,tissue uptake at 0.5 h,[4]; [15],0.6 ± 0.04 %ID/g
same,tissue uptake at 1 h,[4]; [15],0.66 ± 0.06 %ID/g
same,tissue uptake at 2 h,[4]; [15],0.67 ± 0.18 %ID/g
same,tissue uptake at 0.5 h,[4]; [16],0.79 ± 0.08 %ID/g
same,tissue uptake at 1 h,[4]; [16],0.8 ± 0.07 %ID/g
same,tissue uptake at 2 h,[4]; [16],0.79 ± 0.17 %ID/g
same,tissue uptake at 0.5 h,[4]; [17],8.47 ± 0.83 %ID/g
same,tissue uptake at 1 h,[4]; [17],7.48 ± 0.6 %ID/g
same,tissue uptake at 2 h,[4]; [17],3.02 ± 0.69 %ID/g
same,tissue uptake at 0.5 h,[4]; [18],1.4 ± 0.07 %ID/g
same,tissue uptake at 1 h,[4]; [18],1.54 ± 0.12 %ID/g
same,tissue uptake at 2 h,[4]; [18],1.33 ± 0.17 %ID/g
same,tissue uptake at 0.5 h,[4]; [19],0.62 ± 0.08 %ID/g
same,tissue uptake at 1 h,[4]; [19],0.54 ± 0.06 %ID/g
same,tissue uptake at 2 h,[4]; [19],0.48 ± 0.04 %ID/g
same,tissue uptake at 0.5 h,[4]; [20],0.28 ± 0.04 %ID/g
same,tissue uptake at 1 h,[4]; [20],0.25 ± 0.03 %ID/g
same,tissue uptake at 2 h,[4]; [20],0.3 ± 0.04 %ID/g
same,tissue uptake at 0.5 h,[4]; [21],0.59 ± 0.08 %ID/g
same,tissue uptake at 1 h,[4]; [21],0.58 ± 0.06 %ID/g
same,tissue uptake at 2 h,[4]; [21],0.43 ± 0.03 %ID/g
same,In vivo radiochemical stability (RP-HPLC of urine),[5],no peak corresponded to fluorine-18
